# Test results taken from patent US20060069132A1, “Azolecarboxamide herbicides” (priority 2004, published 2006).
# Legend:
# barnyardgrass [1] = assay: Test A pre-/postemergence herbicide test; assay type: in vivo, Echinochloa crus-galli
# How it was run: (§1)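 Visual injury scores on a 0–100 scale (100 = complete control) taken about ten days post-treatment in greenhouse against untreated controls; dash means no result. Treatments: preemergence soil spray and postemergence spray to runoff on one- to two-leaf plants 2 to 10 cm tall, surfactant-containing formulation.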
# large crabgrass [2] = assay: Test A pre-/postemergence herbicide test; assay type: in vivo, Digitaria sanguinalis
# How it was run: as §1
# giant foxtail [3] = assay: Test A pre-/postemergence herbicide test; assay type: in vivo, Setaria faberi
# How it was run: as §1
# morningglory [4] = assay: Test A pre-/postemergence herbicide test; assay type: in vivo, Ipomoea spp.
# How it was run: as §1
# redroot pigweed = assay: Test A pre-/postemergence herbicide test; assay type: in vivo, Amaranthus retroflexus
# How it was run: as §1
# velvetleaf [5] = assay: Test A pre-/postemergence herbicide test; assay type: in vivo, Abutilon theophrasti
# How it was run: as §1
# barnyardgrass [6] = assay: Test B pre-/postemergence herbicide test; assay type: in vivo, Echinochloa crus-galli; details: for Plant response rating, Barnyardgrass: preemergence; for Barnyardgrass plant response rating: postemergence, visual rating, scale 0 (no effect) to 100 (complete control)
# How it was run: (§2)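 Response was scored visually 13 to 15 days after treatment against untreated greenhouse controls, 0 meaning no effect and 100 complete control. Formulations (solvent mixture plus surfactant) went onto soil after planting, onto foliage of 1- to 4-leaf plants, and onto 2-leaf plants in a flooded paddy set including rice and barnyardgrass.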
# Surinam grass = assay: Test B pre-/postemergence herbicide test; assay type: in vivo, Urochloa decumbens; details: for Plant response rating, Surinam Grass: preemergence; for Surinam Grass plant response rating: postemergence, visual rating, scale 0 (no effect) to 100 (complete control)
# How it was run: (§3)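 Seeds were planted and treated preemergence with compounds formulated in a non-phytotoxic solvent mixture containing surfactant, while plants at the 1- to 4-leaf stage (2 to 18 cm) received postemergence sprays. Flooded paddy plants were grown to the 2-leaf stage. After 13 to 15 days in a greenhouse, injury was visually rated 0–100 against untreated controls.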
# cocklebur = assay: Test B pre-/postemergence herbicide test; assay type: in vivo, Xanthium strumarium; details: for Plant response rating, Cocklebur: preemergence; for Cocklebur plant response rating: postemergence, visual rating, scale 0 (no effect) to 100 (complete control)
# How it was run: as §2
# corn = assay: Test B pre-/postemergence herbicide test; assay type: in vivo, Zea mays; details: preemergence
# How it was run: as §3
# large crabgrass [7] = assay: Test B pre-/postemergence herbicide test; assay type: in vivo, Digitaria sanguinalis; details: for Plant response rating, Crabgrass, Large: preemergence; for Crabgrass, Large plant response rating: postemergence, visual rating, scale 0 (no effect) to 100 (complete control)
# How it was run: as §3
# giant foxtail [8] = assay: Test B pre-/postemergence herbicide test; assay type: in vivo, Setaria faberi; details: for Plant response rating, Foxtail, Giant: preemergence; for Foxtail, Giant plant response rating: postemergence, visual rating, scale 0 (no effect) to 100 (complete control)
# How it was run: as §3
# lambsquarters = assay: Test B pre-/postemergence herbicide test; assay type: in vivo, Chenopodium album; details: for Plant response rating, Lambsquarters: preemergence; for Lambsquarters plant response rating: postemergence, visual rating, scale 0 (no effect) to 100 (complete control)
# How it was run: as §3
# morningglory [9] = assay: Test B pre-/postemergence herbicide test; assay type: in vivo, Ipomoea coccinea; details: preemergence, 125 g ai/ha; 0 to 100 scale, 0 is no effect, 100 is complete control
# How it was run: as §2
# pigweed = assay: Test B pre-/postemergence herbicide test; assay type: in vivo, Amaranthus retroflexus; details: for Plant response rating, Pigweed: preemergence; for Pigweed plant response rating: postemergence, visual rating, scale 0 (no effect) to 100 (complete control)
# How it was run: as §3
# rice [10] = assay: Test B pre-/postemergence herbicide test; assay type: in vivo, Oryza sativa; details: preemergence, 125 g ai/ha; 0 to 100 scale, 0 is no effect, 100 is complete control
# How it was run: as §3
# velvetleaf [11] = assay: Test B pre-/postemergence herbicide test; assay type: in vivo, Abutilon theophrasti; details: for Plant response rating, Velvetleaf: preemergence; for Velvetleaf plant response rating: postemergence, visual rating, scale 0 (no effect) to 100 (complete control)
# How it was run: as §3
# blackgrass = assay: Test B postemergence herbicide test; assay type: in vivo, Alopecurus myosuroides; details: postemergence, visual rating, scale 0 (no effect) to 100 (complete control)
# How it was run: (§4)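 Visual control ratings, 0–100 versus untreated controls, taken after 13 to 15 days in the greenhouse. Blackgrass received a postemergence spray at the 1- to 4-leaf stage (2–18 cm); ducksalad, umbrella sedge and barnyardgrass were flooded-paddy treated at 2 leaves.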
# wheat = assay: Test B postemergence herbicide test; assay type: in vivo, Triticum aestivum; parameters: key to Wheat plant response rating: 0 = no effect, 100 = complete control; details: postemergence, visual rating, scale 0 (no effect) to 100 (complete control)
# How it was run: (§5)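 Formulated test chemicals went onto postemergence plants measuring 2 to 18 cm, at one to four leaves. For the paddy assay, species had reached two leaves. Scoring took place 13–15 days later by eye, relative to untreated plants, using 0 for no effect up to 100 for full control.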
# wild oat = assay: Test B postemergence herbicide test; assay type: in vivo, Avena fatua; details: postemergence, visual rating, scale 0 (no effect) to 100 (complete control)
# How it was run: as §5
# rice [12] = assay: Test B flooded paddy test; assay type: in vivo, Oryza sativa; details: 1000 g ai/ha, visual rating, scale 0 to 100 (0 no effect, 100 complete control), 13 to 15 days
# How it was run: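 Visual ratings, 0 (no effect) to 100 (complete control), made versus controls after 13–15 d greenhouse. Paddy plants treated at 2-leaf stage; postemergence plants at 1- to 4-leaf stage, 2–18 cm tall.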
# [13] = test system: small flower umbrella sedge; assay: Test B flooded paddy test; assay type: in vivo, Cyperus difformis; details: 1000 g ai/ha, visual rating, scale 0 to 100 (0 no effect, 100 complete control), 13 to 15 days
# How it was run: as §4
# ducksalad = assay: Test B flooded paddy test; assay type: in vivo, Heteranthera limosa; details: 1000 g ai/ha, visual rating, scale 0 to 100 (0 no effect, 100 complete control), 13 to 15 days
# How it was run: as §4
# barnyardgrass [14] = assay: Test B flooded paddy test; assay type: in vivo, Echinochloa crus-galli; details: 1000 g ai/ha, visual rating, scale 0 to 100 (0 no effect, 100 complete control), 13 to 15 days
# How it was run: as §4
# [15] = Postemergence, 500 g ai/ha, 0 to 100 scale, 0 no effect, 100 complete control
# [16] = Postemergence, 2000 g ai/ha, 0 to 100 scale, 0 no effect, 100 complete control
# [17] = Preemergence, 500 g ai/ha, visual rating, 0 to 100 scale (0 no effect, 100 complete control)
# [18] = Preemergence, 2000 g ai/ha, visual rating, 0 to 100 scale (0 no effect, 100 complete control)
# [19] = preemergence, 500 g ai/ha, visual injury, 0 to 100 scale (0 no effect, 100 complete control)
# [20] = 500 g ai/ha, visual rating 0-100, 0 no effect, 100 complete control
# [21] = 125 g ai/ha, 0 to 100 scale, 0 is no effect, 100 is complete control
smiles,measurement,setting,value
CCC(C)c1cc(C(=O)Nc2cccc(C(C)=NO)c2)n(C)n1 (stereo not shown) [Compound 120],Barnyardgrass plant response rating,barnyardgrass [1]; [15],45
same,"Plant response rating, Barnyardgrass",barnyardgrass [1]; [16],65
same,Barnyardgrass plant response rating,barnyardgrass [1]; [17],30
same,Barnyardgrass plant response rating,barnyardgrass [1]; [18],85
same,"Crabgrass, Large plant response rating",large crabgrass [2]; [15],50
same,"Plant response rating, Crabgrass, Large",large crabgrass [2]; [16],65
same,"Crabgrass, Large plant response rating",large crabgrass [2]; [17],45
same,"Crabgrass, Large plant response rating",large crabgrass [2]; [18],75
same,"Foxtail, Giant plant response rating",giant foxtail [3]; [15],20
same,"Plant response rating, Foxtail, Giant",giant foxtail [3]; [16],20
same,"Foxtail, Giant plant response rating",giant foxtail [3]; [17],25
same,"Foxtail, Giant plant response rating",giant foxtail [3]; [18],55
same,Morningglory plant response rating,morningglory [4]; [15],20
same,"Plant response rating, Morningglory",morningglory [4]; [16],40
same,Morningglory plant response rating,morningglory [4]; [17],20
same,Morningglory plant response rating,morningglory [4]; [18],55
same,Pigweed plant response rating,redroot pigweed; [15],50
same,"Plant response rating, Pigweed",redroot pigweed; [16],85
same,Pigweed plant response rating,redroot pigweed; [18],50
same,Pigweed plant response rating,redroot pigweed; [19],20
same,Velvetleaf plant response rating,velvetleaf [5]; [15],25
same,"Plant response rating, Velvetleaf",velvetleaf [5]; [16],30
same,Velvetleaf plant response rating,velvetleaf [5]; [18],40
same,Velvetleaf plant response rating,velvetleaf [5]; [19],20
same,"Plant response rating, Barnyardgrass",barnyardgrass [6]; [20],90
same,Barnyardgrass plant response rating,barnyardgrass [6]; 125 g ai/ha,10
same,Barnyardgrass plant response rating,barnyardgrass [6]; 500 g ai/ha,10
same,"Plant response rating, Barnyardgrass",barnyardgrass [6]; [21],0
same,"Plant response rating, Surinam Grass",Surinam grass; [20],0
same,Surinam Grass plant response rating,Surinam grass; 125 g ai/ha,20
same,Surinam Grass plant response rating,Surinam grass; 500 g ai/ha,50
same,"Plant response rating, Surinam Grass",Surinam grass; [21],0
same,"Plant response rating, Cocklebur",cocklebur; [20],0
same,Cocklebur plant response rating,cocklebur; 125 g ai/ha,30
same,Cocklebur plant response rating,cocklebur; 500 g ai/ha,60
same,"Plant response rating, Cocklebur",cocklebur; [21],0
same,"Plant response rating, Corn",corn; [20],0
same,"Plant response rating, Corn",corn; [21],0
same,"Plant response rating, Crabgrass, Large",large crabgrass [7]; [20],90
same,"Crabgrass, Large plant response rating",large crabgrass [7]; 125 g ai/ha,10
same,"Crabgrass, Large plant response rating",large crabgrass [7]; 500 g ai/ha,20
same,"Plant response rating, Crabgrass, Large",large crabgrass [7]; [21],70
same,"Plant response rating, Foxtail, Giant",giant foxtail [8]; [20],70
same,"Foxtail, Giant plant response rating",giant foxtail [8]; 125 g ai/ha,10
same,"Foxtail, Giant plant response rating",giant foxtail [8]; 500 g ai/ha,10
same,"Plant response rating, Foxtail, Giant",giant foxtail [8]; [21],0
same,"Plant response rating, Lambsquarters",lambsquarters; [20],20
same,Lambsquarters plant response rating,lambsquarters; 125 g ai/ha,0
same,Lambsquarters plant response rating,lambsquarters; 500 g ai/ha,50
same,"Plant response rating, Lambsquarters",lambsquarters; [21],0
same,"Plant response rating, Morningglory",morningglory [9],10
same,"Plant response rating, Pigweed",pigweed; [20],30
same,Pigweed plant response rating,pigweed; 125 g ai/ha,10
same,Pigweed plant response rating,pigweed; 500 g ai/ha,70
same,"Plant response rating, Pigweed",pigweed; [21],0
same,"Plant response rating, Rice",rice [10],0
same,"Plant response rating, Velvetleaf",velvetleaf [11]; [20],40
same,Velvetleaf plant response rating,velvetleaf [11]; 125 g ai/ha,10
same,Velvetleaf plant response rating,velvetleaf [11]; 500 g ai/ha,30
same,"Plant response rating, Velvetleaf",velvetleaf [11]; [21],20
same,Blackgrass plant response rating,blackgrass; 125 g ai/ha,0
same,Blackgrass plant response rating,blackgrass; 500 g ai/ha,10
same,Wheat plant response rating,wheat; 125 g ai/ha,10
same,Wheat plant response rating,wheat; 500 g ai/ha,10
same,"Oat, Wild plant response rating",wild oat; 125 g ai/ha,10
same,"Oat, Wild plant response rating",wild oat; 500 g ai/ha,10
same,Rice plant response rating,rice [12],0
same,"Sedge, Umbrella plant response rating",[13],10
same,Ducksalad plant response rating,ducksalad,70
same,Barnyardgrass plant response rating,barnyardgrass [14],30
